# Like-named read-outs stand apart in the source and are kept apart here.
# Columns and labels:
# HAdV5-GFP [1] = test: microbe, parasite or virus in culture; type: cell-based, human adenovirus; settings: for inhibition at 10 µM / IC50: Human adenovirus sp.; for inhibition at 10 µM: read-out: Plaque Assay (10 μM) (%) Inhibition; for IC50: read-out: Plaque Assay IC50; for Selectivity Index (SI): ratio of CC50 to IC50 in plaque assay; for Plaque Assay (10 μM) (%) Inhibition: HAdV5-GFP, low MOI (0.06 vp/cell), 293β5 cell line
# Protocol: Compounds were measured at concentrations of 10 μM and in a dose−response assay ranging from 10 to 0.3 μM using low MOI infections (0.06 vp/cell) in a plaque assay. […] Cells were infected with HAdV5-GFP (0.06 vp/cell) and rocked for 2 h at 37 °C, when cells reached 80%–90% confluency. When the incubation was finished, the inoculum was removed followed by washing the cells once with PBS. […] The compounds were also added to the mixture in concentrations ranging from 10 to 0.3 μM. After incubation for 7 days at 37 °C, we scanned plates with a Typhoon FLA 9000 imager (GE Healthcare Life Sciences, MA, USA) and quantified plaques with ImageJ [47].
# [2] = Cytotoxicity assay (AlamarBlue); type: cell-based; settings: human, A549 cells, A549 cell line
# Protocol: The cytotoxicity of these derivatives was tested by commercial kit AlamarBlue® (Ref. DAL1025, Invitrogen, MA, USA). […] The cytotoxic concentration 50 (CC50) value was obtained by using the statistical package GraphPad Prism. This assay was performed in duplicate.
# HAdV5-GFP [3] = settings: read-out: IC50 (anti-HAdV); cited from earlier work
# A549 cells = settings: cited from earlier work
# HAdV5 = test: HAdV-mediated endosome disruption (α-sarcin co-delivery assay); type: cell-based, human adenovirus; settings: A549 cells, niclosamide 5 μM, independent of virus concentration
# Protocol: A549 cells (~20,000 cells/well) were incubated in DMEM without cysteine or methionine supplemented with 10% dialyzed FBS [DMEM (−)] in black 96-well plates for 1 h before infection. […] The medium was then removed and replaced with 50 μL DMEM (−) containing 0.1 mg/mL α-sarcin (Santa Cruz Biotechnology, Dallas, TX, USA) and the virus and drug mixtures. After 2 h at 37 °C, the Click-iT HPG Alexa Fluor 488 Protein Synthesis Assay Kits (Invitrogen, MA, USA) were used to analyze protein synthesis according to the manufacturer’s instructions. The incorporation of the amino acid analog of methionine L-homopropargylglycine (HPG) containing Alexa Fluor 488 azide was measured using a Typhoon 9410 imager (GE Healthcare Life Sciences, MA, USA) and calculated subtracting the background level of the control well containing L-homopropargylglycine (HPG) and α-sarcin but not virus (100% incorporation).
# wild-type HAdV5 = test: Virus yield reduction (virus burst assay); type: cell-based, human adenovirus; settings: A549 cells, HAdV 100 vp/cell, 48 h; niclosamide 5 μM, 16 at 10-fold IC50; versus DMSO
# Protocol: After 48 h, cells were harvested and subjected to three rounds of freeze/thaw. Serial dilutions of clarified lysates were titrated on A549 cells (3 × 10^4 cells/well), and we calculated TCID50 values using an endpoint dilution method.
# HAdV-5 DNA replication = test: HAdV DNA quantification by real-time PCR (DNA replication); type: cell-based, human adenovirus; settings: A549 cells, 24 h, HAdV5 100 vp/cell; 16 at 7.8 μM (10-fold IC50), niclosamide 5 μM; versus DMSO
# Protocol: All samples were carried out in duplicate. After incubation for 24 h at 37 °C, DNA was purified from the cell lysate with the E.Z.N.A.® Tissue DNA Kit (Omega Bio-tek, Norcross, GA, USA) following the manufacturer’s instructions. TaqMan primers and probes for a common region of the HAdV5 hexon were designed with the GenScript Real-Time PCR (TaqMan) Primer Design software (GenScript, Leiden, Netherlands). Oligonucleotides sequences were: AQ1: 5′-GCCACGGTGGGGTTTCTAAACTT-3′; AQ2: 5′-GCCCCAGTGGTCTTACATGCACAT-3′; Probe: 6-FAM-5′-TGCACCAGACCCGGGCTCAGGTACTCCGA-3′-TAMRA. Real-time PCR mixtures contained 9.5 μL of the purified DNA, AQ1 and AQ2 at a concentration of 200 nM each and Probe at a concentration of 50 nM in a total volume of 25 μL. The PCR cycling protocol was 95 °C for 3 min followed by 40 cycles of 95 °C for 10 s and 60 °C for 30 s. Human glyceraldehyde-3-phosphate dehydrogenase (GAPDH) gene was applied as internal control. Oligonucleotides sequences for GAPDH and conditions were previously reported by Rivera et al..
# For quantification, gene fragments from hexon and GAPDH were cloned into the pGEM-T Easy vector (Promega, MA, USA), and known concentrations of template were used to produce a standard curve in parallel for each experiment. All assays were done in thermal cycler LightCycler® 96 System (Roche, Basel, Switzerland).
smiles,measurement,setting,value
"O=C(NCCC1CCCCC1)c1cc(Cl)ccc1O [Compound 20, 5-Chloro-N-(2-cyclohexylethyl)-2-hydroxybenzamide]",inhibition at 10 µM,HAdV5-GFP [1],97.8 ± 1.7%
same,IC50,HAdV5-GFP [1],1 ± 0.1 µM
same,Selectivity Index (SI),HAdV5-GFP [1],64.3
same,CC50 at 48 h,[2],66.3 ± 7.9 µM
"CC(C)(C)OC(=O)N1CCC(NC(=O)c2cc(Cl)ccc2O)CC1 [Compound 15, tert-Butyl 4-(5-chloro-2-hydroxybenzamido)piperidine-1-carboxylate]",inhibition at 10 µM,HAdV5-GFP [1],52.2 ± 7.1%
"C[C@H](NC(=O)c1cc(Cl)ccc1O)C1CCCCC1 [Compound 17, (S)-5-Chloro-N-(1-cyclohexylethyl)-2-hydroxybenzamide]",inhibition at 10 µM,HAdV5-GFP [1],100%
same,IC50,HAdV5-GFP [1],0.51 ± 0.14 µM
same,Selectivity Index (SI),HAdV5-GFP [1],45.1
same,CC50 at 48 h,[2],23 ± 1.3 µM
"CC(=O)N1CCN(C(=O)c2cc(Cl)ccc2O)CC1 [Compound 27, 1-(4-(5-Chloro-2-hydroxybenzoyl)piperazin-1-yl)ethanone]",inhibition at 10 µM,HAdV5-GFP [1],0%
"CCCCCCNC(=O)c1cc(Cl)ccc1O [Compound 24, 5-Chloro-N-hexyl-2-hydroxybenzamide]",inhibition at 10 µM,HAdV5-GFP [1],98.5 ± 2.1%
same,IC50,HAdV5-GFP [1],3.73 ± 0.64 µM
same,Selectivity Index (SI),HAdV5-GFP [1],6.4
same,CC50 at 48 h,[2],23.8 ± 3.1 µM
"CC(C)(C)OC(=O)N1CCN(CCNC(=O)c2cc(Cl)ccc2O)CC1 [Compound 21, tert-Butyl 4-(2-(5-chloro-2-hydroxybenzamido)ethyl)piperazine-1-carboxylate]",Plaque Assay (10 μM) (%) Inhibition,HAdV5-GFP [1],neither piperazine analogue (21 and 22) nor the morpholine analogue 23 showed meaningful inhibitory activity
same,inhibition at 10 µM,HAdV5-GFP [1],22.2 ± 13.2%
CC1(Nc2ccc(NC(=O)c3cc(Cl)ccc3O)c(Cl)c2)CCCC1 [Compound 5],IC50,HAdV5-GFP [3],0.27 µM
same,CC50,A549 cells,157 µM
"O=C(NCC1CCOCC1)c1cc(Cl)ccc1O [Compound 18, 5-Chloro-2-hydroxy-N-((tetrahydro-2H-pyran-4-yl)methyl)benzamide]",Plaque Assay (10 μM) (%) Inhibition,HAdV5-GFP [1],no anti-HAdV activity
same,inhibition at 10 µM,HAdV5-GFP [1],0%
"CC(C)(C)OC(=O)N1CCC(CNC(=O)c2cc(Cl)ccc2O)CC1 [Compound 19, tert-Butyl 4-((5-chloro-2-hydroxybenzamido)methyl)piperidine-1-carboxylate]",inhibition at 10 µM,HAdV5-GFP [1],88.5 ± 1.9%
"O=C(NC1CCCCC1)c1cc(Cl)ccc1O [Compound 12, 5-Chloro-N-cyclohexyl-2-hydroxybenzamide]",inhibition at 10 µM,HAdV5-GFP [1],57.6 ± 0.2%
"O=C(NC1CCCCCC1)c1cc(Cl)ccc1O [Compound 13, 5-Chloro-N-cycloheptyl-2-hydroxybenzamide]",inhibition at 10 µM,HAdV5-GFP [1],99.6 ± 0.2%
same,IC50,HAdV5-GFP [1],4.7 ± 0.1 µM
same,Selectivity Index (SI),HAdV5-GFP [1],6.6
same,CC50 at 48 h,[2],30.9 ± 6.3 µM
"O=C(NC1CCCC1)c1cc(Cl)ccc1O [Compound 11, 5-Chloro-N-cyclopentyl-2-hydroxybenzamide]",inhibition at 10 µM,HAdV5-GFP [1],22.6 ± 7.4%
"CN1CCN(C(=O)c2cc(Cl)ccc2O)CC1 [Compound 28, (5-Chloro-2-hydroxyphenyl)(4-methylpiperazin-1-yl)methanone]",inhibition at 10 µM,HAdV5-GFP [1],0%
CC(C)C(NC(=O)c1cc(Cl)ccc1O)C(=O)Nc1ccc([N+](=O)[O-])cc1Cl (stereo not drawn) [Compound 6],IC50,HAdV5-GFP [3],0.45 µM
same,CC50,A549 cells,200 µM
"O=C(NCCN1CCOCC1)c1cc(Cl)ccc1O [Compound 23, 5-Chloro-2-hydroxy-N-(2-morpholinoethyl)benzamide]",Plaque Assay (10 μM) (%) Inhibition,HAdV5-GFP [1],neither piperazine analogue (21 and 22) nor the morpholine analogue 23 showed meaningful inhibitory activity
same,inhibition at 10 µM,HAdV5-GFP [1],0%
"CC(C)(C)OC(=O)NCCCCNC(=O)c1cc(Cl)ccc1O [Compound 25, tert-Butyl (4-(5-chloro-2-hydroxybenzamido)butyl)carbamate]",inhibition at 10 µM,HAdV5-GFP [1],74 ± 5.7%
"O=C(c1cc(Cl)ccc1O)N1CCCCC1 [Compound 26, (5-Chloro-2-hydroxyphenyl)(piperidin-1-yl)methanone]",inhibition at 10 µM,HAdV5-GFP [1],0%
"CN1CCN(CCNC(=O)c2cc(Cl)ccc2O)CC1 [Compound 22, 5-Chloro-2-hydroxy-N-(2-(4-methylpiperazin-1-yl)ethyl)benzamide]",Plaque Assay (10 μM) (%) Inhibition,HAdV5-GFP [1],neither piperazine analogue (21 and 22) nor the morpholine analogue 23 showed meaningful inhibitory activity
same,inhibition at 10 µM,HAdV5-GFP [1],0%
O=C(Nc1cc(F)cc(C(F)(F)F)c1)c1cc(Cl)ccc1O [Compound 4],IC50,HAdV5-GFP [3],0.18 µM
same,CC50,A549 cells,120 µM
"O=C(NC1CCOCC1)c1cc(Cl)ccc1O [Compound 14, 5-Chloro-2-hydroxy-N-(tetrahydro-2H-pyran-4-yl)benzamide]",Plaque Assay (10 μM) (%) Inhibition,HAdV5-GFP [1],completely inactive
same,inhibition at 10 µM,HAdV5-GFP [1],0%
"O=C(Nc1ccc([N+](=O)[O-])cc1Cl)c1cc(Cl)ccc1O [Compound 3, niclosamide, reference compound]",HPG incorporation compared to control without α-sarcin,HAdV5,under 50%
same,inhibition at 10 µM,HAdV5-GFP [1],100%
same,IC50,HAdV5-GFP [1],0.6 ± 0.05 µM
same,Virus Yield Reduction,wild-type HAdV5,82 ± 35 fold
same,Inhibition of HAdV-5 DNA replication (qPCR),HAdV-5 DNA replication,prevented any detectable DNA replication

# Reference: publication PMC7915867, “Discovery of a Small Molecule Inhibitor of Human Adenovirus Capable of Preventing Escape from the Endosome” (International Journal of Molecular Sciences, 2021)
